The values below are quoted from earlier work in patent US12571046B2, “Methods of detecting and treating multiple system atrophy” (THE TRANSLATIONAL GENOMICS RESEARCH INSTITUTE, priority 2020, dated 2026).

The test system of data set [1] is conditional QKI knock-out mouse model. Conditions: conditional QKI-KO mouse; PPARβ and RXR agonists; literature ref [82]/[96].
The target of data set [2] is α-synuclein (Homo sapiens, UniProt P37840). Conditions: in vitro; interaction at N-terminus of α-synuclein; literature ref [65].

In the case of `C[C@@H]1CN(c2ccc(OC(F)(F)F)cc2)C[C@H](C)N1S(=O)(=O)c1cccc2c1C[C@@H](C(=O)O)C2.Cc1ccc(S(=O)(=O)O)cc1` [KD3010], in data set [1], the “effect on QKI deficiency-induced demyelination” value is “alleviate QKI deficiency-induced demyelination in the mouse”.

For the molecule `C=C(c1ccc(C(=O)O)cc1)c1cc2c(cc1C)C(C)(C)CCC2(C)C` [bexarotene], in data set [1], the “effect on QKI deficiency-induced demyelination” value is listed as “alleviate QKI deficiency-induced demyelination in the mouse”.

On to Vitamin K, for which the “effect on α-synuclein fibrillization” value in data set [2] is listed as “delays α-synuclein fibrillization”.
